One substance from US12402628B2, “Compositions, kits, methods and uses for cleaning, disinfecting, sterilizing and/or treating” (Collidion, Inc., priority 2018, dated 2025) can be followed below.

The test system of the experiment is Staphylococcus epidermidis (ATCC 12228). In words: Bacterial viability assay with Bovine Serum, HOCl and salt controls (Table 30). Type of experiment: cell-based. The conditions noted are these: 200 ppm Hypochlorous acid, 5 minutes. As to the method: Stock cultures of pathogenic bacteria Staphylococcus epidermidis (ATCC 12228) were prepared as described in Example 3. The final numeration count uses aliquot volume, count obtained on TSA plate and the total original volume of culture. The remaining amount in the tube was used to inoculate actual test samples. Samples from each composition tested were set up with Bovine Serum as follows: 1) Assays with serum contained 100 μL of pathogenic bacteria suspension, 500 μL of Bovine Serum and 9400 μL of one of the composition formulations shown in Table 29; 2) HOCl control assays contained 100 μL of pathogen bacteria suspension, 500 μL of Bovine Serum and 9400 μL of 350 ppm, 200 ppm, 100 ppm or 50 ppm Hypochlorous acid; 3) Salt control assays contained 100 μL of pathogen bacteria suspension, 500 μL of Bovine Serum and 9400 μL of 140 ppm, 80 ppm, 40 ppm or 20 ppm each of Copper (II) chloride, Iron (II) chloride and zinc chloride or each of Copper (II) chloride, Iron (III) chloride and zinc chloride; and 4) Negative control assays contained 100 μL of pathogen bacteria suspension, 500 μL of Bovine Serum and 9400 μL of sterile water. Samples were exposed for five (5) minutes at which point a neutralizing agent was used to inhibit the activity of the microbial agent being tested. […] The presence of viable bacteria was then measured by counting the number of colonies observed on the agar medium.

“And” between values parts separate entries of the source, which are not always exact repeats. Identical values can stand only once.

For Hypochlorous acid [HOCl Control], the “Log Growth Reduction, HOCl Control” value was 3.03 log and 3.00 log.
